Results from patent US7034045B1, “Monofluoroalkyl derivatives” (Eli Lilly and Company, priority 1999, dated 2006).

- melting point: 155 to 157 °C
SMILES: CC(C)S(=O)(=O)NCC(C)(F)c1ccc(-c2ccc(CC#N)cc2)cc1 (stereo not shown) [Example 9, 2-{4-[4-(1-Fluoro-1-methyl-2-{[(methylethyl)sulfonyl]amino}ethyl)phenyl]phenyl}ethanenitrile]
